Key:
[1] = target: T1, Bcl-2-related protein A1 (Homo sapiens, UniProt Q16548); experiment: Inhibition of N-terminal His6-tagged recombinant Bfl-1 (1 to 151 residues)(unknown origin) extracted from Escherichia coli BL21-Gold (DE3) using HyLite Fluor 647-labeled Bim peptide as substrate incubated for 120 mins by TR-FRET assay
T1 sequence (Q16548 whole entry): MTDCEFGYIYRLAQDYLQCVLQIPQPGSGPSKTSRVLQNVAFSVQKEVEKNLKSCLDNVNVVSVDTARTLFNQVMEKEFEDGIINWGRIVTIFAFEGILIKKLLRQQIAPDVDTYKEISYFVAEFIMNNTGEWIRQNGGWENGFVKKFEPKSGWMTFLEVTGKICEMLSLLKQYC

[2] = target: T1, Bcl-2-related protein A1; experiment: Inhibition of Bfl-1 in human SU-DHL-1 cells assessed as caspase-3/7 activation measured after 6 hrs by UPLC-MRM MS analysis; format: cell-based
[3] = target: Induced myeloid leukemia cell differentiation protein Mcl-1 (Homo sapiens, UniProt Q07820); experiment: Inhibition of Mcl-1 (unknown origin)
Induced myeloid leukemia cell differentiation protein Mcl-1, sequence (Q07820 whole entry): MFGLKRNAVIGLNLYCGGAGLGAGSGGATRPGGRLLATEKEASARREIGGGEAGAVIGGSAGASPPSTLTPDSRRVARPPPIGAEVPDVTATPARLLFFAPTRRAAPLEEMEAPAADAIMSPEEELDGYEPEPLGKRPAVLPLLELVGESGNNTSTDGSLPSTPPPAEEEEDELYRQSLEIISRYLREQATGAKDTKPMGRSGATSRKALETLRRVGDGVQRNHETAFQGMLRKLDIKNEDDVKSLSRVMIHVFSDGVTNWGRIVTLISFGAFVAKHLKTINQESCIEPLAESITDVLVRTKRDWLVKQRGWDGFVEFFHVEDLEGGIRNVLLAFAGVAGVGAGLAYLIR

| Compound | IC50 [1] [nM] | EC50 [2] [µM] | IC50 [3] [µM] |
| --- | --- | --- | --- |
| C=CC(=O)N(Cc1ccc(C(F)(F)F)c(C#N)c1)c1ccc(O[C@@H]2CC[C@@H](N)C2)cc1 (racemic) | 300 | 1.8 | – |
| C=CC(=O)N(Cc1ccc(OC)cc1)c1ccc(Cl)cc1 | 19000 | – | – |
| C=CC(=O)N(Cc1ccc(C(F)(F)F)cc1)c1ccc(O[C@@H]2CC[C@@H](N)C2)cc1 (racemic) | 720 | 2.6 | – |
| C=CC(=O)N(Cc1ccc(Cl)cc1)c1ccc(O[C@@H]2CC[C@@H](N)C2)cc1 | 340 | – | – |
| C=CC(=O)N(c1ccc(O[C@@H]2CC[C@@H](N)C2)cc1)[C@@H](C)c1ccc(C(F)(F)F)c(C#N)c1 | 22 | 0.37 | > 100 |
| C=CC(=O)N(Cc1ccc(Cl)cc1)c1ccc(O[C@@H]2CC[C@@H](N(C)C)C2)cc1 (racemic) | 440 | – | – |
| C=CC(=O)N(Cc1ccc(OC)cc1)c1ccccc1 | > 100000 | – | – |
| C=CC(=O)N(Cc1ccc(OC)cc1)c1ccccc1Cl | 29000 | – | – |
| C=CC(=O)N(c1ccc(O[C@@H]2CC[C@@H](N)C2)cc1)[C@H](C)c1ccc(C(F)(F)F)c(C#N)c1 | 1600 | 6.9 | – |
| C=CC(=O)N(Cc1ccc(Cl)cc1)c1ccc(OC)cc1 | 9800 | – | – |
| C=CC(=O)N(Cc1ccc(Cl)c(C#N)c1)c1ccc(O[C@@H]2CC[C@@H](N)C2)cc1 (racemic) | 350 | 3.7 | – |
| C=CC(=O)N(Cc1ccc(Cl)cc1)c1ccc(F)cc1 | 5100 | – | – |
| C=CC(=O)N(Cc1ccc(C#N)c(Cl)c1)c1ccc(O[C@@H]2CC[C@@H](N)C2)cc1 (racemic) | 550 | – | – |

Now from value to molecule:

| IC50 [1] [nM] | EC50 [2] [µM] | IC50 [3] [µM] | Compound |
| --- | --- | --- | --- |
| 360 | – | – | C=CC(=O)N(Cc1ccc(Cl)cc1)c1ccc(O[C@@H]2CC[C@@H](NC(=O)NC)C2)cc1 (racemic) |
| 450 | 7.4 | – | C=CC(=O)N(Cc1ccc(Cl)cc1)c1ccc(O[C@@H]2CC[C@@H](N)C2)cc1 (racemic) |
| 460 | – | – | C=CC(=O)N(Cc1ccc(Cl)cc1)c1ccc(O[C@@H]2CC[C@@H](NC(C)=O)C2)cc1 (racemic) |
| 22000 | – | – | C=CC(=O)N(Cc1ccc(Cl)cc1)c1ccc(O[C@@H]2CC[C@@H](N(C)C(C)=O)C2)cc1 (racemic) |
| 5100 | – | – | C=CC(=O)N(Cc1ccc(Cl)cc1)c1ccc(O[C@H]2CC[C@H](N)C2)cc1 |
| 380 | – | – | C=CC(=O)N(Cc1ccc(Cl)cc1)c1ccc(O[C@@H]2CC[C@@H](NC)C2)cc1 (racemic) |
| 42000 | – | – | C=CC(=O)N(Cc1ccc(Cl)cc1)c1ccc(O[C@H]2CC[C@@H](N)C2)cc1 (racemic) |

— ChEMBL document CHEMBL5608257, “Structure-Based Optimization of a Series of Covalent, Cell Active Bfl-1 Inhibitors” (J Med Chem, 2024)
